Assay results as given in ChEMBL document CHEMBL3414550 (J Med Chem, 2015).

Tests used:
[1] = molecular target: T1, Oxytocin receptor (Homo sapiens, UniProt P30559); experiment: Competitive binding to SNAP-tagged oxytocin receptor (unknown origin) expressed in HEK293 cells incubated for 1 hr at RT followed by 4 hrs at 4 degC by TR-FRET assay in presence of 5-(3-(22-(3-carboxy-4-(3-oxo-3H-xanthen-9-yl)phenyl)-15,22-dioxo-2,5,8,11-tetraoxa-14,21-diazadocosyl)-5-(3-(2-chloro-4-fluorophenoxy)azetidin-1-yl)-4H-1,2,4-triazol-4-yl)-2-methoxypyridinium 2,2,2-trifluoroacetate; format: cell-based
T1 sequence (P30559 whole entry): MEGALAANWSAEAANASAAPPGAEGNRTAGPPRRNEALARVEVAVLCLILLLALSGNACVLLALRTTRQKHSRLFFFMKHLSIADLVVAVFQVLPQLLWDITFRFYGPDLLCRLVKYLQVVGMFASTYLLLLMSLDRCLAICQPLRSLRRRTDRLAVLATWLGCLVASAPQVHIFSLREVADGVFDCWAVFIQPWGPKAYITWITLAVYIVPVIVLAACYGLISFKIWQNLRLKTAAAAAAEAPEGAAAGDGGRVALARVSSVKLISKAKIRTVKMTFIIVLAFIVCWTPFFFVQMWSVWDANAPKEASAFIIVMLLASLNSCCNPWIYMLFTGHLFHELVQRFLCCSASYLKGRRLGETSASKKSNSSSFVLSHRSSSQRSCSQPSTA

[2] = molecular target: T2, Vasopressin V1a receptor (Homo sapiens, UniProt P37288); experiment: Binding affinity to V1aR (unknown origin)
T2 sequence (P37288 whole entry): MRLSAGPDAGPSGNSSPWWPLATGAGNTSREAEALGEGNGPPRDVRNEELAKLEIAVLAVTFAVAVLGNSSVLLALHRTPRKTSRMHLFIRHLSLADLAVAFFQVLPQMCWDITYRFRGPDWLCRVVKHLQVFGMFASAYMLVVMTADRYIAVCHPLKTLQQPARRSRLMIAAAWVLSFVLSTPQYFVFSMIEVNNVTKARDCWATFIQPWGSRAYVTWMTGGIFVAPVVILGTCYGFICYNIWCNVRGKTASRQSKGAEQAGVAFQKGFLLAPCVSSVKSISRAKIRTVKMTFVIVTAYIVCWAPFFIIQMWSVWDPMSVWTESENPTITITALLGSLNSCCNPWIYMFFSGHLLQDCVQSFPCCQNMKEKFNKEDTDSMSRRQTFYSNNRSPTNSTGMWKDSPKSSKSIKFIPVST

[3] = molecular target: T3, Vasopressin V2 receptor (Homo sapiens, UniProt P30518); experiment: Binding affinity to V2R (unknown origin)
T3 sequence (P30518 whole entry): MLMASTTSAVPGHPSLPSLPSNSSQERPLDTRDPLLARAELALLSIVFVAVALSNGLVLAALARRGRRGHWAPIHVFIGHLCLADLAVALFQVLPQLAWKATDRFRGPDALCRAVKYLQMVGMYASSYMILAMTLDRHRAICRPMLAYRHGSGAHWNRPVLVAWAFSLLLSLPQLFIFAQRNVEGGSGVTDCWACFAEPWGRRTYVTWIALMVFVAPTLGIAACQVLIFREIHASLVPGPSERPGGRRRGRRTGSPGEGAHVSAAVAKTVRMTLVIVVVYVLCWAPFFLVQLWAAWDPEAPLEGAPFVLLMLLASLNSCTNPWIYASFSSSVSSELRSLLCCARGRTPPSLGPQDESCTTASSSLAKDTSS

[4] = molecular target: T1, Oxytocin receptor; experiment: Competitive binding to SNAP-tagged oxytocin receptor (unknown origin) expressed in HEK293 cells incubated for 1 hr at RT followed by 4 hrs at 4 degC by TR-FRET assay in presence of 2-(5-(3-(1-(5-(3-(2-chloro-4-fluorophenoxy)azetidin-1-yl)-4-(6-methoxypyridinium-3-yl)-4H-1,2,4-triazol-3-yl)-15-oxo-2,5,8,11-tetraoxa-14-azaoctadecan-18-yl)-1-ethyl-3-methyl-5-sulfoindolin-2-ylidene)penta-1,3-dienyl)-1 …; format: cell-based
[5] = molecular target: T1, Oxytocin receptor; experiment: Binding affinity to OTR (unknown origin)
[6] = Retention time of the compound by RP-HPLC analysis; format: physicochemical
[7] = molecular target: T1, Oxytocin receptor; experiment: Binding affinity to SNAP-tagged oxytocin receptor (unknown origin) expressed in HEK293 cells assessed as dissociation constant after 5 to 120 mins by TR-FRET assay; format: cell-based
[8] = molecular target: T4, Vasopressin V1b receptor (Homo sapiens, UniProt P47901); experiment: Binding affinity to V1bR (unknown origin) expressed in HEK293 cells by TR-FRET assay; format: cell-based
T4 sequence (P47901 whole entry): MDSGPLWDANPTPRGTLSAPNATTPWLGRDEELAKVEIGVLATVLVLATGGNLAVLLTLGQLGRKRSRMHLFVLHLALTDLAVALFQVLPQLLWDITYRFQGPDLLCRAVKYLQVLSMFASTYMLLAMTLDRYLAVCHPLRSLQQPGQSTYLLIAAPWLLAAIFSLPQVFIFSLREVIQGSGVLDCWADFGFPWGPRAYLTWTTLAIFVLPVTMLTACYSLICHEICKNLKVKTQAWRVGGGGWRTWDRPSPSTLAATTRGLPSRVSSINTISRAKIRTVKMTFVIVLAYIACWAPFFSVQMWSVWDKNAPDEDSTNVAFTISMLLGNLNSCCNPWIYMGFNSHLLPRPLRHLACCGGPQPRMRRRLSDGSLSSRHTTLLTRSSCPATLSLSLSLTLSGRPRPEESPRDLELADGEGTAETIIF

[9] = molecular target: T2, Vasopressin V1a receptor; experiment: Binding affinity to V1aR (unknown origin) expressed in HEK293 cells by TR-FRET assay; format: cell-based
[10] = molecular target: T3, Vasopressin V2 receptor; experiment: Binding affinity to V2R (unknown origin) expressed in HEK293 cells by TR-FRET assay; format: cell-based
[11] = molecular target: T1, Oxytocin receptor; experiment: Binding affinity to SNAP-tagged oxytocin receptor (unknown origin) expressed in HEK293 cells by TR-FRET assay; format: cell-based
[12] = molecular target: T1, Oxytocin receptor; experiment: Binding affinity to SNAP-tagged oxytocin receptor (unknown origin) expressed in HEK293 cells assessed as association constant after 5 to 120 mins by TR-FRET assay; format: cell-based
[13] = species on record: Homo sapiens; experiment: Selectivity ratio of Kd for V1aR (unknown origin) to Kd for SNAP-tagged oxytocin receptor (unknown origin)

Row | Ki [1] [nM] | Ki [2] [nM] | Ki [3] [nM] | Ki [4] [nM] | Ki [5] [nM] | Retention_time [6] [min] | koff [7] [×10⁻³ /min] | Kd [8] [nM] | Kd [9] [nM] | Kd [10] [nM] | Kd [11] [nM] | kon [12] [×10⁶ /M/min] | Ratio [13] | Compound
1 |  |  |  |  |  | 3.94 | 10.9 | > 1000 | > 1000 | 509 | 1.59 | 4.03 |  | CCN1\C(=C/C=C/C=C/C2=[N+](CC)c3cc(S(=O)(=O)[O-])ccc3C2(C)C)C(C)(CCCC(=O)NCCOCCOCCOCCOCc2nnc(N3CC(Oc4ccc(F)cc4Cl)C3)n2-c2ccc(OC)nc2)c2cc(S(=O)(=O)O)ccc21.O=C(O)C(F)(F)F (stereo not drawn)
2 |  |  |  |  |  | 4.38 | 18.9 | > 1000 | > 1000 | > 1000 | 1.59 | 3.57 |  | COc1ccc(-n2c(COCCOCCOCCOCCNC(=O)CCCCCNC(=O)c3ccc(-c4c5ccc(=O)cc-5oc5cc(O)ccc45)c(C(=O)O)c3)nnc2N2CC(Oc3ccc(F)cc3Cl)C2)cn1.O=C(O)C(F)(F)F
3 |  |  |  |  |  | 3.97 |  | > 1000 | > 1000 | 353 | 1.86 |  |  | CCN1\C(=C/C=C/C=C/C2=[N+](CC)c3cc(S(=O)(=O)[O-])ccc3C2(C)C)C(C)(CCCC(=O)NCCOCCOCCOCCOCCOCCOCCOCCOCc2nnc(N3CC(Oc4ccc(F)cc4Cl)C3)n2-c2ccc(OC)nc2)c2cc(S(=O)(=O)O)ccc21.O=C(O)C(F)(F)F (stereo not drawn)

Second part, the molecule before the results:

Row | Compound | Ki [1] [nM] | Ki [2] [nM] | Ki [3] [nM] | Ki [4] [nM] | Ki [5] [nM] | Retention_time [6] [min] | koff [7] [×10⁻³ /min] | Kd [8] [nM] | Kd [9] [nM] | Kd [10] [nM] | Kd [11] [nM] | kon [12] [×10⁶ /M/min] | Ratio [13]
4 | Cc1ccn(Cc2ccc(C(=O)N3Cc4cnn(C)c4Nc4ccccc43)cc2C)n1 | 6.22 | 18 | 913 | 6.6 | 27.8 |  |  |  |  |  |  |  | 
5 | CCN1\C(=C/C=C/C=C/C2=[N+](CC)c3cc(S(=O)(=O)[O-])ccc3C2(C)C)C(C)(CCCC(=O)ON2C(=O)CCC2=O)c2cc(S(=O)(=O)O)ccc21 (stereo not drawn) |  |  |  |  |  | 3.17 |  |  |  |  |  |  | 
6 | CCN1\C(=C/C=C/C=C/C2=[N+](CC)c3cc(S(=O)(=O)[O-])ccc3C2(C)C)C(C)(CCCC(=O)NCCNC(=O)CCc2ccc(S(=O)(=O)N(CC(=O)N/N=C3\C(=O)Nc4ccccc43)c3ccc(Cl)cc3)cc2)c2cc(S(=O)(=O)O)ccc21 (stereo not drawn) |  |  |  |  |  | 3.96 |  | > 1000 | 19.7 | 30.5 | 1.37 |  | 14
7 | O=C(CCCCCNC(=O)c1ccc2c(c1)C(=O)OC21c2ccc(O)cc2Oc2cc(O)ccc21)ON1C(=O)CCC1=O |  |  |  |  |  | 4 |  |  |  |  |  |  | 
8 | COc1ccc(-n2c(COCCOCCOCCOCCOCCOCCOCCOCCNC(=O)CCCCCNC(=O)c3ccc(-c4c5ccc(=O)cc-5oc5cc(O)ccc45)c(C(=O)O)c3)nnc2N2CC(Oc3ccc(F)cc3Cl)C2)cn1.O=C(O)C(F)(F)F |  |  |  |  |  | 4.39 |  | > 1000 | > 1000 | > 1000 | 2.05 |  | 
9 | O=C(CCCCCNC(=O)c1ccc(-c2c3ccc(=O)cc-3oc3cc(O)ccc23)c(C(=O)O)c1)NCCNC(=O)CCc1ccc(S(=O)(=O)N(CC(=O)N/N=C2\C(=O)Nc3ccccc32)c2ccc(Cl)cc2)cc1 |  |  |  |  |  | 4.68 |  | > 1000 | 61 | 135 | 1.73 |  | 35
